Laboratory results published in patent US7125964B2, “Purification of antigen-specific T cells” (Ortho-McNeil Pharmaceutical, Inc., priority 1996, dated 2006).
Where two headings read alike, the source gives them in different places.

Experiments:
[1] = target: 2C T cell receptor (2C TCR) on naive T cells purified from 2C TCR transgenic mice (mouse); test: fluorescein-labeled 2C T cells with phycoerythrin-labeled L^d-coated beads, flow cytofluorometry, green versus red dot plots
2C T cells [2] = test: Capture of 2C T cells on MHC-coated magnetic beads, microscopic examination; format: cell-based, mouse; conditions: readout not stated
2C TCR = conditions: association constant, cited from earlier work; for affinity of peptide-MHC complex for the 2C TCR: recently determined; for 2C TCR affinity for L^d-peptide: Sykulev et al, 1994 a, b
2C T cells [3] = test: Cell-bead complex formation, flow cytofluorometry, side scatter versus forward scatter dot plots; format: cell-based, mouse; conditions: 4 hours of incubation
2C T cells [4] = test: Recovery of 2C T cells mixed with CD8^+ T cells from naive C57BL/6 mouse by adsorption on MHC class I-coated magnetic beads; format: cell-based; conditions: for % 2C T cell after enrichment: 0.03% 2C T cells before enrichment
Procedure: T cell precursor frequencies in a naive animal are typically low. Magnetic beads have been found suitable in other systems to enrich low frequency cell populations (Sawada et al., 1990; Kato and Radbruch, 1993). To assess whether MHC class I-coated magnetic beads could be used for T cell precursor enrichment, we mixed fluorescein-labeled 2C T cells with CD8^+ T cells purified from naive C57BL/6 mice. After incubation with MHC-coated magnetic beads in the presence of peptide, adsorbed cells were eluted and counted, and the percentage of 2C T cells was determined by flow cytofluorometry. In the experiment shown in FIG. 5, 2C T cells were undetectable at the initial frequency of 0.03%. Following adsorption using K^bm3-coated beads and dEV-8 peptide, a definite peak of green fluorescence was observed, displaying the same intensity as the original fluorescein-stained 2C T cell population. This peak represented 65.1% of the eluted cells. No peak was observed when a control peptide was used instead of dEV-8. […] In all cases, the non-fluorescent cells in the eluted population represented only a minor fraction of the initial cell population (˜0.2%).

2C T cells [5] = test: Influence of temperature and CD8 on cell-bead complex formation, flow cytofluorometry; format: cell-based, mouse; conditions: for CD8 dependence of cell capture: purified 2C T cells versus CD8^− 2C T cells, room temperature, 3 hours
Procedure: We used flow cytofluorometry analysis to quantitate the influence of various parameters on cell-bead complex formation. Attachment of cells to beads was time dependent. […] Kinetics of adsorption were remarkably parallel for various peptide-MHC complexes. At 4° C., only a small percentage of cells was captured on beads, even after prolonged incubation. […] ([…], 1996).

[6] = target: 2C T cell receptor (2C TCR) on naive T cells purified from 2C TCR transgenic mice (mouse); test: 2C T cells with MHC-coated magnetic beads, 4 h, flow cytofluorometry, forward versus side scatter
[7] = target: 2C T cell receptor (2C TCR) on naive T cells purified from 2C TCR transgenic mice (mouse); test: 2C T cells mixed with CD8+ T cells of naive B6 mouse (0.03%), adsorption on MHC class I-coated magnetic beads, 2 experiments
EL4 cells = format: cell-based, mouse
[8] = target: 2C T cell receptor (2C TCR) on naive T cells purified from 2C TCR transgenic mice (mouse); test: 2C T cells with MHC-coated magnetic beads, flow cytofluorometry, temperature dependence
[9] = target: 2C T cell receptor (2C TCR) on naive T cells purified from 2C TCR transgenic mice (mouse); test: 2C T cells mixed with CD8+ T cells of naive B6 mouse (0.03%), adsorption on MHC class I-coated magnetic beads, 3 experiments
2C T cells [10] = test: Cell-bead complex formation, flow cytofluorometry, green versus red fluorescence dot plots; format: cell-based, mouse; conditions: L^d-coated beads, 20 μM peptide
L^d = target: T1, L^d (Mus musculus, UniProt P01897); conditions: association constant; cited from earlier work
T1 sequence (P01897 25-298 limits assumed): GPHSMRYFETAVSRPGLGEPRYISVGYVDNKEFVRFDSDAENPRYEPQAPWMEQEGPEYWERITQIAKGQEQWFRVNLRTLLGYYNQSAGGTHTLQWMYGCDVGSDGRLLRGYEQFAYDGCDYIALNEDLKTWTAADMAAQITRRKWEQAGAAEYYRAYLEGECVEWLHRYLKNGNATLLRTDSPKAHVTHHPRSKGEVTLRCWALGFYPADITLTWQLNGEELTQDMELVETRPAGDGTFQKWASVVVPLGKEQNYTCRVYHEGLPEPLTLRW
T1 sequence (P01887 21-119 partner): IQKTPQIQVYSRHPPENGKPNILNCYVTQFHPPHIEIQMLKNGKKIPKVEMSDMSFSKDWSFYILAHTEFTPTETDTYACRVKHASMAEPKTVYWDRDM

[11] = target: 2C T cell receptor (2C TCR) on naive T cells purified from 2C TCR transgenic mice (mouse); test: 2C T cells with MHC-coated magnetic beads, flow cytofluorometry, forward versus side scatter
[12] = target: 2C T cell receptor (2C TCR) on naive T cells purified from 2C TCR transgenic mice (mouse); test: fluorescein-labeled 2C T cells with phycoerythrin-labeled L^d-coated beads, flow cytofluorometry, green versus red dot plots; laid by the filing to non-specific adsorption of cell debris

## L^d-SL9 complex on avidin-coated magnetic beads (from UniProt P01887 21-119; P01897 25-362) (peptide-MHC)
[1]
  % of cells complexed to beads: > 85%

## K^b-dEV-8: complex of K^b with peptide dEV-8
2C T cells [2]
  capture of 2C T cells observed or not: not
2C TCR
  affinity of peptide-MHC complex for the 2C TCR: 12000 M⁻¹

## EQYKFYSV [dEV-8, ID; NO.: 5]
2C T cells [3]; K^bm3-coated beads
  percentage of cells adsorbed to beads (CO/CO+CE): 63.8%
2C T cells [4]; K^bm3-coated beads
  2C T cell enrichment: 1697 ± 473 fold
  % 2C T cell after enrichment: 50.9 ± 14.2%
2C T cells [5]
  CD8 dependence of cell capture: most CD8-dependent

## L^d-QL9: complex of MHC class I molecule L^d with peptide QL9
2C T cells [5]
  CD8 dependence of cell capture: largely CD8 independent

## K^bm3-dEV-8 complex on avidin-coated magnetic beads (from UniProt P01887 21-119) (peptide-MHC)
[6]
  % of cells adsorbed to beads: 63.8%
[7]
  2C T cell recovery: 47.7%

## L^d-SL9: complex of L^d with peptide SL9
2C TCR
  affinity of peptide-MHC complex for the 2C TCR: 14000 M⁻¹

## K^b-SIYR complex on avidin-coated magnetic beads (from UniProt P01887 21-119; P01901 22-369) (peptide-MHC)
[6]
  % of cells adsorbed to beads: 75.7%
[7]
  2C T cell recovery: 56.8%

## RGYVYQGL [VSV-8]
EL4 cells
  CTL activity of cells captured and cultured with the same peptide: displayed a CTL activity specific for VSV-8
  CTL precursors for the other peptide in captured cells: no detectable anti-OVA-8 CTL precursors

## L^d-p2Ca-A3: complex of L^d with peptide p2Ca-A3
2C T cells [2]
  capture of 2C T cells observed or not: not
2C TCR
  affinity of peptide-MHC complex for the 2C TCR: 20000 M⁻¹

## L^d-p2Ca: complex of L^d with peptide p2Ca
2C T cells [5]; 37° C. versus room temperature
  attachment levels at 37° C. relative to values measured at room temperature: about 25%
2C T cells [5]
  CD8 dependence of cell capture: exhibited CD8 dependence

## L^d-p2Ca complex on avidin-coated magnetic beads (from UniProt P01887 21-119; P01897 25-362) (peptide-MHC)
[8]
  attachment level at 37° C. against the value at room temperature: 25%
[6]
  % of cells adsorbed to beads: 78.9%
[1]
  % of cells complexed to beads: > 85%

## L^d-QL9 complex on avidin-coated magnetic beads (from UniProt P01887 21-119; P01897 25-362) (peptide-MHC)
[6]
  % of cells adsorbed to beads: 91%
[9]
  2C T cell recovery: 90%
[1]
  % of cells complexed to beads: > 85%

## RPQASGVYM [LCMV]
2C T cells [10]
  percentage of cells complexed to beads (RG/G+RG): 2.2%

## K^b-SIYR: complex of K^b with peptide SIYR
2C T cells [2]
  capture of 2C T cells observed or not: consistently observed capture
2C TCR
  affinity of peptide-MHC complex for the 2C TCR: 31000 M⁻¹

## QLSPFPFDL [QL9]
2C T cells [3]; L^d-coated beads
  percentage of cells adsorbed to beads (CO/CO+CE): 91.0%
2C T cells [4]; L^d-coated beads
  2C T cell enrichment: 828 ± 230 fold
  % 2C T cell after enrichment: 24.8 ± 6.9%
2C T cells [5]
  CD8 dependence of cell capture: CD8 independent
2C TCR
  2C TCR affinity for L^d-peptide: 10^7 M^−1
L^d
  Peptide affinity for L^d: 2e+08 M⁻¹

## L^d-LCMV complex on avidin-coated magnetic beads (from UniProt P01887 21-119; P01897 25-362) (peptide-MHC)
[11]
  % of events in the complex region: 2.6%
[12]
  % red and green colored events: 2.2%

## SIYRYYGL
2C T cells [3]; K^b-coated beads
  percentage of cells adsorbed to beads (CO/CO+CE): 75.7%
2C T cells [4]; K^b-coated beads
  2C T cell enrichment: 1588 ± 71 fold
  % 2C T cell after enrichment: 47.6 ± 2.1%
2C T cells [5]
  CD8 dependence of cell capture: CD8 independent

## YPHFMPTNL [MCMV, ID; NO.: 8]
2C TCR
  2C TCR affinity for L^d-peptide: <10^3 M^−1
L^d
  Peptide affinity for L^d: 2e+09 M⁻¹

## SPFPFDLLL [SL9, ID; NO.: 3]
2C TCR
  2C TCR affinity for L^d-peptide: 14000 M⁻¹
L^d
  Peptide affinity for L^d: 4e+07 M⁻¹

## SIINFEKL [OVA-8, ID; NO.: 9]
EL4 cells; K^b-coated beads, naive C57BL/6 CD8^+ T cells, tested at day 18, peptides 1 μM
  CTL activity of cells captured and cultured with the same peptide: displayed a CTL activity specific for OVA-8 peptide
EL4 cells; reverse combination: captured with one peptide, activated in culture with the other
  CTL precursors for the other peptide in captured cells: no detectable anti-VSV-8 CTL precursors

## LSPFPFDL [p2Ca]
2C T cells [3]; L^d-coated beads
  percentage of cells adsorbed to beads (CO/CO+CE): 78.9%
2C T cells [5]
  CD8 dependence of cell capture: most CD8-dependent
2C TCR
  2C TCR affinity for L^d-peptide: 2e+06 M⁻¹
L^d
  Peptide affinity for L^d: 4e+06 M⁻¹

B1: K^b-E1: non-2C reactive complex of K^b with peptide E1 (protein)
MHC heavy: GPHSLRYFVTAVSRPGLGEPRYMEVGYVDDTEFVRFDSDAENPRYEPRARWMEQEGPEYWERETQKAKGNEQSFRVDLRTLLGYYNQSKGGSHTIQVISGCEVGSDGRLLRGYQQYAYDGCDYIALNEDLKTWTAADMAALITKHKWEQAGEAERLRAYLEGTCVEWLRRYLKNGNATLLRTDSPKAHVTHHSRPEDKVTLRCWALGFYPADITLTWQLNGEELIQDMELVETRPAGDGTFQKWASVVVPLGKEQYYTCHVYHQGLPEPLTLRWEPPPSTVSNMATVAVLVVLGAAIVTGAVVAFVMKMRRRNTGGKGGDYALAPGSQTSDLSLPDCKVMVHDPHSLA
b2m: IQKTPQIQVYSRHPPENGKPNILNCYVTQFHPPHIEIQMLKNGKKIPKVEMSDMSFSKDWSFYILAHTEFTPTETDTYACRVKHASMAEPKTVYWDRDM
peptide: EIINFEKL
2C T cells [3]; K^b-coated beads
  percentage of cells adsorbed to beads (CO/CO+CE): 0.2%
